Assays:
[1] = molecular target: bovine carbonic anhydrase II (bCA-II) (Bos taurus, UniProt P00921); assay: Carbonic anhydrase II (CA-II) inhibition, spectrophotometric p-nitrophenyl acetate assay; assay type: biochemical; conditions: pH 7.4, 25 °C; for inhibition at 500 µM: pH 7.4, bCA-II, compound at 500 µM, read-out: % Inhibtion (500 µM); for IC50: bCA-II, substrate p-NPA, triplicate
Protocol: Evaluation of carbonic anhydrase inhibition was done by spectrophotometric technique as narrated by Pocker and Meany with little alteration[69],[70] as described previously. The process was carried out in HEPES-Tris buffer (20 mM) having pH 7.4 at 25 °C. Each inhibitory well contained 20 µL of CA-II enzyme solution (0.1 mg/mL HEPES-Tris buffer), 140 µL of HEPES-Tris buffer solution, 20 µL of the compound to be analyzed in HPLC grade DMSO. At 25 °C, the solution mixture was pre-incubated for 15 min. Substrate p-nitrophenyl acetate (p-NPA) (0.7 mM) was prepared in HPLC grade methanol and the reaction was initiated by the addition of 20 µL to a well in a 96-well-plate. The quantity of product formed was measured at 400 nm continually at 1 min gap for 30 min in a 96-well-plate using xMARK microplate spectrophotometer, Bio-Rad (USA). The inhibition activity of the controlled compound was considered as 100%. All the experiments were performed in triplicates of each used concentration, and the conclusions are expressed as a mean of the triplicate.
All thiosemicarbazones derivatives (3a–q) were tested against bovine carbonic anhydrase II (bCA-II).

Sequence of bovine carbonic anhydrase II (bCA-II) (P00921 whole entry): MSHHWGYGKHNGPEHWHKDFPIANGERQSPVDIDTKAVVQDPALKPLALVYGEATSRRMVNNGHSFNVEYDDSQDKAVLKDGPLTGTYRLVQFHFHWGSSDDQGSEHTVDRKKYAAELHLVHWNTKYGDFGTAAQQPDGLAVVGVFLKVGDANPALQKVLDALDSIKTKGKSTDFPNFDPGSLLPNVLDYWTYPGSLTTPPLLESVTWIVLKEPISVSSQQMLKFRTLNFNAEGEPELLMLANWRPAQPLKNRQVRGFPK

Row | SMILES | inhibition at 500 µM [1] [%] | melting point [°C] | IC50 [1] [µM]
1 | CN(C)c1ccc(/C=C/C=N/NC(=S)Nc2cccc(F)c2)cc1 [3j, (E)-2-((E)-3-(4-(Dimethylamino)phenyl)allylidene)-N-(3-fluorophenyl)hydrazine-1-carbothioamide] | < 50 | 218 | –
2 | CN(C)c1ccc(/C=C/C=N/NC(=S)Nc2ccc(F)cc2F)cc1 [3h, (E)-N-(2,4-Difluorophenyl)-2-((E)-3-(4-(dimethylamino)phenyl)allylidene)hydrazine-1-carbothioamide] | 77.1 | 202 | 13.4 ± 0.52
3 | CN(C)c1ccc(/C=C/C=N/NC(=S)Nc2ccc(Cl)cc2)cc1 [3m, (E)-N-(4-Chlorophenyl)-2-((E)-3-(4-(dimethylamino)phenyl)allylidene)hydrazine-1-carbothioamide] | 79.9 | 238 | 14.7 ± 1.42
4 | CN(C)c1ccc(/C=C/C=N/NC(=S)NCc2ccc(F)cc2)cc1 [3n] | 63.2 | 192 | 10.3 ± 0.62
5 | CN(C)c1ccc(/C=C/C=N/NC(=S)NCCc2ccccc2)cc1 [3c] | – | 180 | –
6 | Cc1ccc(NC(=S)N/N=C/C=C/c2ccc(N(C)C)cc2)cc1 [3a, (E)-2-((E)-3-(4-(Dimethylamino)phenyl)allylidene)-N-(p-tolyl)hydrazine-1-carbothioamide] | 82 | 232 | 46.6 ± 0.62
7 | COc1cccc(NC(=S)N/N=C/C=C/c2ccc(N(C)C)cc2)c1 [3f, (E)-2-((E)-3-(4-(Dimethylamino)phenyl)allylidene)-N-(3-methoxyphenyl)hydrazine-1-carbothioamide] | 89.7 | 198 | 17.9 ± 1.23
8 | CN(C)c1ccc(/C=C/C=N/NC(=S)Nc2cccc(C#N)c2)cc1 [3o, (E)-N-(3-Cyanophenyl)-2-((E)-3-(4-(dimethylamino)phenyl)allylidene)hydrazine-1-carbothioamide] | 81.8 | 215 | 21.8 ± 0.85
9 | CC(C)c1ccc(NC(=S)N/N=C/C=C/c2ccc(N(C)C)cc2)cc1 [3i, (E)-2-((E)-3-(4-(Dimethylamino)phenyl)allylidene)-N-(4-isopropylphenyl)hydrazine-1-carbothioamide] | 84.9 | 220 | 33.6 ± 0.42
10 | CN(C)c1ccc(/C=C/C=N/NC(=S)Nc2ccccc2)cc1 [3p, (E)-2-((E)-3-(4-(Dimethylamino)phenyl)allylidene)-N-phenylhydrazine-1-carbothioamide] | – | 218 | –
11 | Cc1cccc(C)c1NC(=S)N/N=C/C=C/c1ccc(N(C)C)cc1 [3b, (E)-2-((E)-3-(4-(Dimethylamino)phenyl)allylidene)-N-(2,6-dimethylphenyl)hydrazine-1-carbothioamide] | 78.1 | 239 | 40.4 ± 0.89
12 | Cc1ccc(NC(=S)N/N=C/C=C/c2ccc(N(C)C)cc2)c(C)c1 [3l, (E)-2-((E)-3-(4-(Dimethylamino)phenyl)allylidene)-N-(2,4-dimethylphenyl)hydrazine-1-carbothioamide] | 78.2 | 232 | 18.3 ± 1.32
13 | CN(C)c1ccc(/C=C/C=N/NC(=S)NCc2ccc(Cl)cc2)cc1 [3k] | – | 196 | –
14 | CN(C)c1ccc(/C=C/C=N/NC(=S)Nc2cccc(Cl)c2Cl)cc1 [3d, (E)-N-(2,3-Dichlorophenyl)-2-((E)-3-(4-(dimethylamino)phenyl)allylidene)hydrazine-1-carbothioamide] | 82.2 | 192 | 36.6 ± 0.15
15 | CN(C)c1ccc(/C=C/C=N/NC(=S)Nc2ccc(Br)cc2)cc1 [3g, (E)-N-(4-Bromophenyl)-2-((E)-3-(4-(dimethylamino)phenyl)allylidene)hydrazine-1-carbothioamide] | 93 | 240 | 12.1 ± 1.01
16 | CN(C)c1ccc(/C=C/C=N/NC(=S)Nc2ccccc2F)cc1 [3e, (E)-2-((E)-3-(4-(Dimethylamino)phenyl)allylidene)-N-(2-fluorophenyl)hydrazine-1-carbothioamide] | 93.4 | 189 | 19.7 ± 0.23
17 | CN(C)c1ccc(/C=C/C=N/NC(=S)NC2CCCCC2)cc1 [3q, (E)-N-Cyclohexyl-2-((E)-3-(4-(dimethylamino)phenyl)allylidene)hydrazine-1-carbothioamide] | – | 252 | –
